Experimental data from patent publication US12630829B2, “Gene encoding cytochrome P450 and use thereof” (KUMIAI CHEMICAL INDUSTRY CO., LTD., priority 2020, dated 2026).
Structures can show the parent of a compound that is named as a salt.

Legend:
[1] = tested on: Arabidopsis thaliana having AK454412 introduced thereinto and wild type; test: Test of sensitivity to various drugs, AK454412-introduced versus wild type Arabidopsis thaliana; type: in vivo; conditions: evaluated subjectively based on drug concentration exhibiting the effect; 0, 0.1, 1, 10, 100, 1,000 nM
Method: Therefore, similar tests were performed on compounds having various acting properties described in HRAC including these sulfonylurea-based ALS inhibitors to search for a compound that can be metabolically degraded by AK454412. Specifically, 61 compounds arbitrarily selected from all of the 25 classifications of HRAC 2020 were subjected to sensitivity examination in Arabidopsis thaliana having AK454412 introduced thereinto and wild type. The sensitivity to each of the drugs was evaluated subjectively with respect to every acting symptom.
As a result, compounds found to have a difference in the sensitivity between the wild type and the recombinant Arabidopsis thaliana are illustrated in FIGS. 10-1 to 10-4. It is noted that concentrations of the drug in respective wells of a plate shown in each photograph in FIGS. 10-1 to 10-4 are 0, 0.1, and 1 nM in the stated order in the rightward direction in an upper portion, and 10, 100, and 1,000 nM in the stated order in the rightward direction in a lower portion. Besides, the compound found to have a sensitivity difference are listed below.

CYP81A6 = conditions: reported so far; cited from earlier work
[2] = main metabolite of fenquinotrione in a wheat body; cited from earlier work

| Molecule | approximate sensitivity difference between wild type and recombinant Arabidopsis thaliana [1] | metabolic reactivity of CYP81A6 against the compound (CYP81A6) | herbicidal activity [2] |
| --- | --- | --- | --- |
| CC(C)N1C(=O)c2ccccc2NS1(=O)=O [bentazone] | < 5 | exhibits metabolic reactivity | – |
| COCc1cccc(C(O)c2nc(OC)cc(OC)n2)c1NS(=O)(=O)C(F)F (centres unmarked) [pyrimisulfan] | 100 | exhibits metabolic reactivity | – |
| O=C(Nc1ccc(F)cc1F)c1cccnc1Oc1cccc(C(F)(F)F)c1 [diflufenican] | 2 | – | – |
| CCOC(=O)COc1cc(-c2nn(C)c(OC(F)F)c2Cl)c(F)cc1Cl [pyraflufen-ethyl] | 10 | – | – |
| COc1cnc(OC)n2nc(NS(=O)(=O)c3c(OCC(F)F)cccc3C(F)(F)F)nc12 [penoxsulam] | 100 | – | – |
| COC(=O)NS(=O)(=O)c1ccc(N)cc1 [asulam] | < 10 | – | – |
| COc1cc(OC)nc(Oc2cccc(Oc3nc(OC)cc(OC)n3)c2C(=O)[O-])n1.[Na+] [Bispyribac-sodium salt, bispyribac-sodium salt] | < 5 | – | – |
| O=C1CCCC(=O)C1C(=O)c1nc2c(Cl)cccc2n(-c2ccc(O)cc2)c1=O [demethylated product of fenquinotrione] | – | – | does not exhibit herbicidal activity |
| CS(=O)(=O)NC(=O)c1cc(Oc2ccc(C(F)(F)F)cc2Cl)ccc1[N+](=O)[O-] [fomesafen] | 3 | – | – |
| CC(C)C1(C)N=C(c2nc3ccccc3cc2C(=O)O)NC1=O (centres unmarked) [imazaquin] | ≤ 10 | – | – |
| oxadiargyl | 2 | – | – |
| fluridone | 2 | – | – |
| O=C(Nc1ccc(F)cc1)c1cccc(Oc2cccc(C(F)(F)F)c2)n1 [picolinafen] | 2 | – | – |
| COC(=O)c1ccccc1S(=O)(=O)NC(=O)Nc1nc(C)cc(C)n1 [sulfometuron-methyl] | 5 | – | – |
| COc1cc(OC)nc(Sc2cccc(Cl)c2C(=O)O)n1 [pyrithiobac-sodium salt] | 100 | – | – |
| CCC(CC)Nc1c([N+](=O)[O-])cc(C)c(C)c1[N+](=O)[O-] [pendimethalin] | < 100 | – | – |
| Cc1nn(-c2cc(NS(C)(=O)=O)c(Cl)cc2Cl)c(=O)n1C(F)F [sulfentrazone] | 10 | – | – |
| CO/N=C(/C)c1cccc(Oc2nc(OC)cc(OC)n2)c1C(=O)OC [pyriminobac-methyl] | – | exhibits metabolic reactivity | – |
| COC(=O)c1ccccc1CS(=O)(=O)NC(=O)Nc1nc(OC)cc(OC)n1 [bensulfuron-methyl] | 10 | exhibits metabolic reactivity | – |
| CNc1cnn(-c2cccc(C(F)(F)F)c2)c(=O)c1Cl [norflurazon] | 2 | – | – |
